Reference: patent US11331379B2, “Compositions and methods for regulating pancreatic beta cell function using adipsin” (Dana-Farber Cancer Institute, Inc., priority 2014, dated 2022)

Tests used:
C3aR1 [1] = target: T1, C3aR1 (Mus musculus, UniProt O09047); experiment: C3aR1 antagonist treatment of adipsin-adenovirus-transduced db/db mice, i.p. GTT and plasma insulin; assay type: in vivo
T1 construct: endogenous in cells; host or cells: db/db mice (Jackson Laboratories, Stock 000697), whole animal
T1 sequence (O09047 1-477): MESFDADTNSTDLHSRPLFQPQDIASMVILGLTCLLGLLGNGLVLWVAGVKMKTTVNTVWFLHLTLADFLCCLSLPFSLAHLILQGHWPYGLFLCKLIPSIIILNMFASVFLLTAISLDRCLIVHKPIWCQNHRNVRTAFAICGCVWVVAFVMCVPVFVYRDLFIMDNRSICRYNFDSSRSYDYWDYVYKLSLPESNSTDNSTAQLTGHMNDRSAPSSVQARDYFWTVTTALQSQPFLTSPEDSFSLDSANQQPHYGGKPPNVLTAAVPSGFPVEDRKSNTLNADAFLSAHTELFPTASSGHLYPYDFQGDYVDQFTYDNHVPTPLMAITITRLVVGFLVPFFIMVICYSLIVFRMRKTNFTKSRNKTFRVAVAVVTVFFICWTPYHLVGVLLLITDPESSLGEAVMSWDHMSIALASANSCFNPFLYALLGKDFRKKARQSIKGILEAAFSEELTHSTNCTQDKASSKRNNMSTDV
From the text: Wild-type (WT) and Adipsin^−/− mice (from G. Stahl, Brigham and Women's Hospital, Boston, Mass., USA) were backcrossed 7-10 generations to C57BL/6 (B6) background. Control littermate mice from same backcrossed generations were used for experiments. B6 mice were fed a regular chow diet or a 60% kCal high fat diet (Research Diets, New Brunswick, N.J., USA) for the indicated times. db/db mice (Stock 000697) were purchased from Jackson laboratories (Bar Harbor, Me., USA). For adenoviral expression studies, mice were injected intravenously with lacZ or adipsin-expressing pAd adenoviral vectors (Life Technologies, Grand Island, N.Y., USA) and assayed 5 days later. For C3aR1 antagonist experiments, SB 290157 (N^2-[(2,2-Diphenylethoxy)acetyl]-L-arginine, TFA, Millipore, Billerica, Mass., USA) dosed at 30 mg/kg or vehicle (10% ethanol) was administered by intraperitoneally (i.p.) injections bis in die (b.i.d.) from days 3-5 after adenovirus. Mice were fasted overnight for glucose tolerance tests and given an i.p. injection of D-glucose ([…] for regular diet mice). For insulin tolerance tests, mice were fasted for 5 hours and given an i.p. injection of insulin (0.75 units/kg body weight). Blood samples were taken from the tail vein and measured with a glucometer. The mice were housed in a facility accredited by the American Association for Laboratory Animal Care. The Institutional Animal Care and Use Committee of the Beth Israel Deaconess Medical Center approved studies using animals.

murine islets = experiment: static glucose-stimulated insulin secretion (GSIS) assay in isolated islets; assay type: cell-based, mouse; details: for enhancement of insulin secretion: islets from WT mice on chow diet
Procedure: (§1) Recombinant C3a and C5a proteins (R&D Systems, Minneapolis, Minn., USA) were used at a concentration of 100 nM. Anti-adipsin antibody for Western blot analysis was from Santa Cruz Biotechnology, Santa Cruz, Calif., USA). Antibodies to C3aR1 (Santa Cruz Biotechnology), C5aR1 (Biolegend, San Diego, Calif., USA) and C5L2 (Hycult Biotechnology, Plymouth Meeting, Pa., USA) were used for flow cytometry. RNA isolation and reverse transcription were performed with TRIzol® (Life Technologies), RNeasy (Qiagen, Valencia, Calif., USA) and cDNA synthesis (Agilent Technologies, Santa Clara, Calif., USA) kits. qPCR reactions were done with SYBR green on an ABI PRISM® 7900HT real time PCR system (Life Technologies).
Islets were isolated from pancreata of the indicated genotype with collagenase digestion as previously described (Danial et al. (2008) Nat. Med. 14:144-153). For static incubation (batch release) assays, islets were handpicked and placed into basal Krebs buffer containing 3 mM glucose followed by transfer into Krebs solution containing the indicated concentrations of glucose or secretagogues. After 45 min incubation at 37° C., the islets were pelleted and the supernatant was collected for insulin measurement. The pellet was solubilized to assess intracellular insulin content. Insulin was measured by ELISA using mouse insulin as a standard (Crystal Chem Inc., Downers Grove, Ill., USA).

islets [2] = experiment: cytoplasmic free Ca2+ measurement in perifused islets (Fura-2); assay type: cell-based, mouse
Procedure: as §1
For measurements of cytoplasmic free Ca^2+ concentration, islets were loaded with 2 μM Fura-2/AM (Molecular Probes, Eugene, Oreg., USA) for 60 min. in the presence or absence of C3a in a buffer containing (in mM) 125 NaCl, 5.9 KCl, 1.28 CaCl2, 1.2 MgCl2, 25 HEPES, and 3 glucose and 0.1% BSA (pH 7.4). After loading, a single islet was transferred to an open perifusion chamber maintained at 37° C. and [Ca^2+], was measured as the 340/380 nm fluorescence ratio using a Spex FluoroLog® spectrophotometer coupled to a Zeiss Axiovert 35 M microscope with a Zeiss Fluar 40×/1.30 oil objective (Carl Zeiss, Gottingen, Germany). Concentrations of 20 mM glucose and 50 mM KCl (in the presence of 3 mM glucose) were used for islet stimulation.

islets [3] = experiment: oxygen consumption rate (OCR) of islets, XF24 analyzer; assay type: cell-based, mouse
Procedure: as §1
Real-time measurements of mitochondrial oxygen consumption rate (OCR) were performed using the XF24 extracellular flux analyzer instrument and the AKOS algorithm built in the XF24 v1.7.0.74 software (Seahorse Bioscience, Inc., Billerica, Mass., USA). Islets were rinsed with sodium bicarbonate-free DMEM supplemented with 0.5% BSA and 3 mM glucose and 60 islets were distributed per well and recounted for OCR measurements. After baseline measurements, substrates or inhibitors of interests were added in single 50 μl injections delivered through individual injection ports. […] The respiratory rate of each islet sample was measured at 37° C. and analyzed using the Seahorse XF24 v1.5.0.69 software.

C3aR1 [4] = target: T1, C3aR1; experiment: GSIS assay in islets from wild-type and C3aR1-deficient mice with or without C3a; assay type: cell-based; details: WT versus C3aR1-deficient islets
From the text: Panels A and B show the relative expression of Adipsin (Panel A) and C3 (Panel B) in liver, quadriceps muscle (quad), islets, epididymal (epi) and inguinal (ing) fat. Samples were quantitated by qPCR. Panels C-E show the results of flow cytometry performed on islet cells with antibodies to the complement/anaphylatoxin receptors C3aR1 (Panel C), C5aR1 (Panel D), and C5L2 (Panel E). Panels F-G show the results of isolated islets from WT mice on a chow diet (Panel F) or HFD (Panel G) subjected to a GSIS assay in the presence or absence of recombinant C3a and C5a with the indicated concentrations of glucose. Panels H and I show the results of db/db mice transduced with lacZ or adipsin adenovirus ([…]) treated with vehicle or C3aR antagonist (SB 290157) at a dose of 30 mg/kg b.i.d. for 3 days and subjected to an i.p. GTT with measurements of blood glucose concentrations (Panel H) and plasma insulin levels (Panel I) at the indicated times. Statistics for GTT assays between groups: lacZ/vehicle vs. adipsin/vehicle, p=0.05; adipsin/vehicle vs. adipsin/SB 290157, p<0.01; lacZ/SB 290157 vs. adipsin/vehicle, p<0.01. […]
Islets were isolated from pancreata of the indicated genotype with collagenase digestion as previously described (Danial et al. (2008) Nat. Med. 14:144-153). […] Insulin was measured by ELISA using mouse insulin as a standard (Crystal Chem Inc., Downers Grove, Ill., USA).

Molecule: N=C(N)NCCC[C@H](NC(=O)COCC(c1ccccc1)c1ccccc1)C(=O)O.O=C(O)C(F)(F)F [SB 290157, N^2-[(2,2-Diphenylethoxy)acetyl]-L-arginine, TFA]
- improvements in insulin secretion conferred by the adipsin adenovirus (C3aR1 [1]; db/db mice with adipsin adenovirus, antagonist 30 mg/kg i.p. b.i.d. for 3 days): nearly completely reversed
- improvements in glucose tolerance conferred by the adipsin adenovirus (C3aR1 [1]; db/db mice with adipsin adenovirus, antagonist 30 mg/kg i.p. b.i.d. for 3 days, i.p. GTT): nearly completely reversed
- insulin induction from time 0 to 20 minutes (C3aR1 [1]; db/db mice, adipsin adenovirus plus SB 290157 30 mg/kg b.i.d. 3 days, i.p. glucose challenge): 1.4 fold

Molecule: C3a: Recombinant C3a protein (R&D Systems); complement peptide, direct product of C3 convertase generated by adipsin
- insulin secretion in conjunction with tolbutamide (murine islets; 0.25 mM tolbutamide, C3a 100 nM): further stimulated insulin secretion
- insulin secretion in conjunction with KCl (murine islets; 30 mM KCl, C3a 100 nM): further stimulated insulin secretion
- enhancement of insulin secretion (murine islets; high glucose, 100 nM, acute): 30-40%
- insulin secretion in diabetic islets (murine islets; islets from diabetic mice fed a HFD, 100 nM): stimulated insulin secretion
- enhancement of insulin secretion (murine islets; low glucose, 100 nM): not low
- basal levels of [Ca2+]i (islets [2]; 3 mM glucose, C3a-treated versus control islets): similar
- [Ca2+]i in response to glucose and KCl (islets [2]; 20 mM glucose and KCl stimulation): potently augmented
- response times of [Ca2+]i (islets [2]; C3a-treated versus non-treated islets): similar
- increase of [Ca2+]i area under the curve (islets [2]; KCl stimulation): ~100%
- increase of peak [Ca2+]i (islets [2]; KCl stimulation): ~100%
- increase of [Ca2+]i area under the curve (islets [2]; glucose stimulation (20 mM)): ~50%
- increase of peak [Ca2+]i (islets [2]; glucose stimulation (20 mM)): ~50%
- increases in [Ca2+]i (islets [2]; isolated islets perifused with glucose or KCl in the presence of C3a): 50-100%
- oxygen consumption with glucose challenge (islets [3]; 20 mM glucose, acute C3a, versus control islets): increased oxygen consumption
- ATP-coupled respiration (islets [3]; islets, C3a versus control): increases ATP-coupled respiration
- C3a-mediated potentiation of glucose-stimulated insulin secretion (C3aR1 [4]): C3aR1 is required

B1: C5a: Recombinant C5a protein (R&D Systems), complement anaphylatoxin (protein, UniProt P01031 678-751, looked up)
C5a anaphylatoxin: TLQKKIEEIAAKYKHSVVKKCCYDGACVNNDETCEQRAARISLGPRCIKAFTECCVVASQLRANISHKDMQLGR
modifications: C5a anaphylatoxin
- enhancement of insulin secretion (murine islets; C5a 100 nM, GSIS): did not show this effect
